In ChEMBL document CHEMBL4312031, “Discovery of candesartan cilexetic as a novel neddylation inhibitor for suppressing tumor growth” (Eur J Med Chem, 2020):
Activity calls are given as the source filed them. The rule behind the calls is not given here.

Columns and labels:
[1] = test system: A549; test: Antitumor activity against human A549 cells xenografted in nude mouse assessed as decrease in tumor weight at 30 mg/kg, ip qd measured after 22 days; assay type: functional, organism-based
[2] = target: T1, NEDD8-conjugating enzyme Ubc12 (Homo sapiens) (UniProt P61081); test: Inhibition of UBC12 in human A549 cells assessed as decrease in Cullin3-Nedd8 adduct level at 50 uM measured after 6 to 12 hrs by Western blot analysis; assay type: cell-based
T1 sequence (whole entry): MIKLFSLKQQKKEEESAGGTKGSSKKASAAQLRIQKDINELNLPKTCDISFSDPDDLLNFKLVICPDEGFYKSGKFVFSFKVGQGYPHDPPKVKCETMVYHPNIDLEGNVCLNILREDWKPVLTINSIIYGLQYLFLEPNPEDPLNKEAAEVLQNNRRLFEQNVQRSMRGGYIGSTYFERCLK

[3] = test system: T47D; test: Antiproliferative activity against human T47D cells measured after 48 hrs by CCK8 assay; assay type: functional, cell-based
[4] = target: T1, NEDD8-conjugating enzyme Ubc12 (Homo sapiens); test: Inhibition of UBC12 in human A549 cells assessed as decrease in Cullin2-Nedd8 adduct level measured after 6 to 12 hrs by Western blot analysis; assay type: cell-based
[5] = test system: A549; test: Antitumor activity against human A549 cells xenografted in nude mouse assessed as decrease in tumor size at 30 mg/kg, ip qd measured after 22 days; assay type: functional, organism-based
[6] = test system: MCF7; test: Antiproliferative activity against human MCF7 cells measured after 48 hrs by CCK8 assay; assay type: functional, cell-based; details: MCF7, 48 h
[7] = test system: A549; test: Inhibition of cullin-RING ligase in human A549 cells assessed as accumulation of Wee1 level at 50 to 125 uM and measured after 6 to 12 hrs by Western blot analysis; assay type: cell-based
[8] = test system: A549; test: Cell cycle arrest in human A549 cells assessed as accumulation at S phase at 75 uM measured after 24 hrs by propidium iodide/RNase A staining based flow cytometry analysis (reference value: 21.54 %); assay type: functional
[9] = test system: PLC; test: Antiproliferative activity against human PLC cells measured after 48 hrs by CCK8 assay; assay type: functional, cell-based
[10] = target: T2, Ubiquitin-conjugating enzyme E2 C (Homo sapiens) (UniProt O00762); test: Inhibition of UbcH10 in human A549 cells assessed as reduction in protein ubiquitination by measuring Ubc10-ub adduct formation at 50 to 100 uM by Western blot analysis; assay type: cell-based
T2 sequence (whole entry): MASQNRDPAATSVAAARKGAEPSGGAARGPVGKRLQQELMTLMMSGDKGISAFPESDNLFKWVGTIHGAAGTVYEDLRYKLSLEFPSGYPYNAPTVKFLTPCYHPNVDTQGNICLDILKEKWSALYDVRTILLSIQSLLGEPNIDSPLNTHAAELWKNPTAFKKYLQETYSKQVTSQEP

[11] = target: T1, NEDD8-conjugating enzyme Ubc12 (Homo sapiens); test: Inhibition of UBC12 in human A549 cells assessed as decrease in Cullin4a-Nedd8 adduct level measured after 6 to 12 hrs by Western blot analysis; assay type: cell-based
[12] = test system: A549; test: Cell cycle arrest in human A549 cells assessed as accumulation at G2 phase at 50 uM measured after 24 hrs by propidium iodide/RNase A staining based flow cytometry analysis (reference value: 12.69 %); assay type: functional
[13] = target: T3, NEDD8/Cullin-1 (Homo sapiens) (UniProt Q13616+Q15843); test: Inhibition of Nedd8-cullin1 (unknown origin) assessed as decrease in cullin1-Nedd8 adduct formation at 25 to 50 uM preincubated for 10 mins followed by ATP addition and measured after 30 mins by immunoblot analysis; assay type: protein assay
T3 sequence (Q13616 whole entry, looked up): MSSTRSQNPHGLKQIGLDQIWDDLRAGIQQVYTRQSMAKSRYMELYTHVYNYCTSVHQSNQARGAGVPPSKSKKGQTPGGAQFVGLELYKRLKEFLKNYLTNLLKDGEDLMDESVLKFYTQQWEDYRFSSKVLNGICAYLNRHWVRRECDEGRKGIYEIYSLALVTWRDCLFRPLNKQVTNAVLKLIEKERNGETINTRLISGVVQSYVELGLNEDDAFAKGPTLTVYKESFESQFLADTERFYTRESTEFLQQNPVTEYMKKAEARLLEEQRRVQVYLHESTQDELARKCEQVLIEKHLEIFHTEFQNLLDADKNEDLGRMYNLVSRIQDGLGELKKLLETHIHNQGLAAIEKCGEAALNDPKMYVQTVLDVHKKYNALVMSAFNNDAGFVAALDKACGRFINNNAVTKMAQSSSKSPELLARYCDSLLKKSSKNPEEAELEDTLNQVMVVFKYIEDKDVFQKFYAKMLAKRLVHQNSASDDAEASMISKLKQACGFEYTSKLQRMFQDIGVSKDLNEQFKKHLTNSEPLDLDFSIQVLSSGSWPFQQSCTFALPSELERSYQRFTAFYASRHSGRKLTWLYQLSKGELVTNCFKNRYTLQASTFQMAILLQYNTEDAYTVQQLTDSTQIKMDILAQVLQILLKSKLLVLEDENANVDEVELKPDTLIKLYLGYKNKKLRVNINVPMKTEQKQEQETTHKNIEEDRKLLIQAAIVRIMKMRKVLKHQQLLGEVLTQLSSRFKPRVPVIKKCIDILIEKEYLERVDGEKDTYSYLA
T3 sequence (Q15843 whole entry, looked up): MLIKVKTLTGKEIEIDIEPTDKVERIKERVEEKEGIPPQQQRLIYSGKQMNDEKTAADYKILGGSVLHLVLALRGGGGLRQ

[14] = test system: 16HBE14o-; test: Cytotoxicity against human 16HBE cells after 48 hrs by CCK-8 assay; assay type: cell-based
[15] = test system: A549; test: Cell cycle arrest in human A549 cells assessed as accumulation at G2 phase at 25 uM measured after 24 hrs by propidium iodide/RNase A staining based flow cytometry analysis (reference value: 12.69 %); assay type: functional
[16] = test system: A549; test: Antitumor activity against human A549 cells xenografted in nude mouse assessed as decrease in tumor size at 60 mg/kg, ip qd measured after 22 days; assay type: functional, organism-based
[17] = target: NEDD8/NEDD8-conjugating enzyme Ubc12 (Homo sapiens) (UniProt P61081+Q15843); test: Competitive inhibition of Nedd8-Ubc12 (unknown origin) adduct formation assessed as decrease in Ubc12-Nedd8 adduct formation at 50 uM preincubated for 10 mins followed by ATP addition and measured after 30 mins by immunoblot analysis; assay type: protein-complex assay
[18] = test system: A549; test: Induction of apoptosis in human A549 cells assessed as late apoptotic cells at 25 uM measured after 48 hrs by AnnexinV-FITC/propidium iodide staining based FACS analysis (reference value: 1.71 %); assay type: functional
[19] = test system: MGC-803; test: Antiproliferative activity against human MGC803 cells measured after 48 hrs by CCK8 assay; assay type: functional, cell-based; details: MGC-803, 48 h
[20] = target: T1, NEDD8-conjugating enzyme Ubc12 (Homo sapiens); test: Inhibition of UBC12 in human A549 cells assessed as decrease in Cullin1-Nedd8 adduct level at 50 uM measured after 6 to 12 hrs by Western blot analysis; assay type: cell-based
[21] = target: T3, NEDD8/Cullin-1 (Homo sapiens); test: Competitive inhibition of Nedd8-cullin1 (unknown origin) adduct formation assessed as decrease in cullin1-Nedd8 adduct formation at 50 uM preincubated for 10 mins followed by ATP addition and measured after 30 mins by immunoblot analysis; assay type: protein assay
[22] = target: T1, NEDD8-conjugating enzyme Ubc12 (Homo sapiens); test: Inhibition of UBC12 in human A549 cells assessed as decrease in Cullin3-Nedd8 adduct level measured after 6 to 12 hrs by Western blot analysis; assay type: cell-based
[23] = target: T3, NEDD8/Cullin-1 (Homo sapiens); test: Inhibition of Nedd8-cullin1 (unknown origin) adduct formation assessed as decrease in cullin1 neddylation at 50 uM preincubated for 10 mins followed by ATP addition and measured after 30 mins by immunoblot analysis; assay type: protein assay
[24] = test system: A549; test: Inhibition of cullin-RING ligase in human A549 cells assessed as accumulation of p27 level at 50 to 125 uM and measured after 6 to 12 hrs by Western blot analysis; assay type: cell-based
[25] = test system: A549; test: Cell cycle arrest in human A549 cells assessed as accumulation at G2 phase at 75 uM measured after 24 hrs by propidium iodide/RNase A staining based flow cytometry analysis (reference value: 12.69 %); assay type: functional
[26] = test system: A549; test: Induction of apoptosis in human A549 cells assessed as early apoptotic cells at 25 uM measured after 48 hrs by AnnexinV-FITC/propidium iodide staining based FACS analysis (reference value: 2.19 %); assay type: functional
[27] = test system: NCI-H1299; test: Antiproliferative activity against human H1299 cells measured after 48 hrs by CCK8 assay; assay type: functional, cell-based; details: NCI-H1299, 48 h
[28] = test system: A549; test: Cell cycle arrest in human A549 cells assessed as accumulation at S phase at 25 uM measured after 24 hrs by propidium iodide/RNase A staining based flow cytometry analysis (reference value: 21.54 %); assay type: functional
[29] = target: T4, NEDD8-conjugating enzyme UBE2F (Homo sapiens) (UniProt Q969M7); test: Inhibition of UBE2F in human A549 cells assessed as decrease in Cullin5-Nedd8 adduct level measured after 6 to 12 hrs by Western blot analysis; assay type: cell-based
T4 sequence (whole entry): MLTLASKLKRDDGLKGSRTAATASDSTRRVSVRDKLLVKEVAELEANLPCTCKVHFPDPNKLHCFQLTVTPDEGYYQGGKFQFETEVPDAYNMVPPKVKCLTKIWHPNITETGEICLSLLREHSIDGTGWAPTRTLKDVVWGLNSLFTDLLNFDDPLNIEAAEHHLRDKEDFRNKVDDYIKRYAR

In the case of `CCOc1nc2cccc(C(=O)OC(C)OC(=O)OC3CCCCC3)c2n1Cc1ccc(-c2ccccc2-c2nn[nH]n2)cc1` (centres undefined) [CANDESARTAN CILEXETIL], the Activity [1] is reported as “Active”, the inhibition [2] is reported as “Active” and the IC50 [3] is reported as 64.3 µM. For the same compound, the inhibition [4] was “Dose-dependent effect”, the Activity [5] was “Active” and the IC50 [6] was over 100 µM. The inhibition [7] was “Active”, the Activity [8] was 19.74% and the IC50 [9] was 60.2 µM. For the same compound, the inhibition [10] was “inactive”, the inhibition [11] was “Dose-dependent effect” and the Activity [12] was 6.79%. The inhibition [13] was “Active”, the IC50 [14] was over 100 µM and the Activity [15] was 6.48%. For the same compound, the Activity [16] was “Active”, the inhibition [17] was “Active” and the Activity [18] was 5.5%. The IC50 [19] was 57.1 µM, the inhibition [20] was “Active” and the inhibition [21] was “Active”. For the same compound, the inhibition [22] was “Dose-dependent effect”, the inhibition [23] was “Active” and the inhibition [24] was “Active”. For the same compound, the Activity [25] was 8.15%, the Activity [26] was 4.1% and the IC50 [27] was 45.1 µM. For the same compound, the Activity [28] was 18.37% and the inhibition [29] was “Dose-dependent effect”.
